Laboratory results as given in US4673692A, “Diphenylmethylimine derivatives, their compositions and pharmaceutical uses” (Teikoku Hormone Mfg. Co., Ltd., priority 1984, dated 1987).
Blank lines part the entries; values can stand above or below the compound they belong to.

How the values were obtained:
[1] = Pharmacological actions of previously disclosed compound
carrageenan paw edema = assay: Anti-inflammatory activity: carrageenan-induced hind paw edema; assay type: in vivo, Male Wistar rats; settings: 10 mg/kg, p.o.; carrageenan 1 h after dosing, volume measured 3 h later; 5 rats per group
Protocol: Male Wistar rats weighing 120 to 150 g which had been fasted for 24 hours were used in groups each consisting of 5 rats. In each group, the volumes of the right hind paw were measured by a volume differential meter (made by Ugo Basile Company), and each of the test compounds was suspended in an aqueous solution of 0.5% of carboxymethyl cellulose and 2.0% of Tween 80, and administered orally through a tube. After one hour from the administration, […] suspension of carrageenan in distilled water was subcutaneously injected into the plantar tissues of the right hind paw. Three hours later, the volumes of the right hind paw were again measured. The increase in volume of the right hind paw of each rat in each group (the volume of edema) was measured. The percent edema inhibition was calculated in accordance with the following equation, and the results are shown in Tale 1.

[2] = system: adjuvant-induced arthritis; assay: Preventive effect on adjuvant-induced arthritis; assay type: in vivo, Sprague-Dawley strain female rats
Protocol: Sprague-Dawley strain female rats, 6 weeks old, were used. Killed and dried M. butyricum (Difco) were suspended (6 mg/ml) in light liquid paraffin, and the suspension was sterilized under pressure to form Freund's complete adjuvant. 0.1 ml of the Freund's complete adjuvant was injected subcutaneously into the right hind paws of the animals to induce arthritis. After the injection of the Freund's complete adjuvant, the test compound was orally administered once a day for 21 consecutive days including the day of injection. The volumes of the left and right hind paws were measured by using the device devised by Fujihira [Eiichi Fujihira: Oyo Yakuri 5, 169-182 (1971)], and the increases in volume from before the injection of the adjuvant was measured and used as an index of swelling. Changes in swelling after the stopping of drug administration were also examined. The animals were used in groups each consisting of 10 members.

granuloma formation = assay: Inhibitory effect on granuloma formation (filter paper implantation); assay type: in vivo, Wistar strain male rats; settings: Rattus norvegicus, po, 168 h; once a day for 7 days; p<0.001, n=7-8; read-out: dose significantly decreasing the dry weight of granuloma
Protocol: Wistar strain male rats were used. Under anesthesia with hexobarbital-Na (100 mg/kg, i.p.), the hair of the back of each rat was removed. Filter paper pieces prepared in tablet form (Toyo Filter Paper, No. 85K, 9 mm diameter) sterilized under pressure were implanted subcutaneously on the left and right sides of the back, and oily procaine penicillin G (a product of Banyu Pharmaceutical Co., Ltd.; 300,000 units/ml) was intramuscularly injected in an amount of 0.25 ml.
After the implantation of the filter paper pieces, the test compound was orally administered once a day for 7 consecutive days including the day of implantation. On the day next to the day of the final administration, the filter paper pieces and granuloma formed around them were excised, and dried at about 60° C. for 24 hours. Their weight was measured. The weight of the filter paper pieces was subtracted, and the balance was defined as the dry amount of glanuloma.

5-lipoxygenase = target: T1, 5-lipoxygenase (Rattus norvegicus, UniProt P12527); assay: 5-lipoxygenase inhibiting action (formation of 5-HETE and 5,12-diHETE) in white blood cells from rat pleural exudate; assay type: cell-based; settings: 14C arachidonic acid, A23187, 2 minutes, read-out: concentration inhibiting 50% of the formation of 5-HETE
T1 construct: endogenous in cells; host or cells: white blood cells from the pleural exudate of rats with carrageenan-induced pleurisy
T1 sequence (P12527 1-673): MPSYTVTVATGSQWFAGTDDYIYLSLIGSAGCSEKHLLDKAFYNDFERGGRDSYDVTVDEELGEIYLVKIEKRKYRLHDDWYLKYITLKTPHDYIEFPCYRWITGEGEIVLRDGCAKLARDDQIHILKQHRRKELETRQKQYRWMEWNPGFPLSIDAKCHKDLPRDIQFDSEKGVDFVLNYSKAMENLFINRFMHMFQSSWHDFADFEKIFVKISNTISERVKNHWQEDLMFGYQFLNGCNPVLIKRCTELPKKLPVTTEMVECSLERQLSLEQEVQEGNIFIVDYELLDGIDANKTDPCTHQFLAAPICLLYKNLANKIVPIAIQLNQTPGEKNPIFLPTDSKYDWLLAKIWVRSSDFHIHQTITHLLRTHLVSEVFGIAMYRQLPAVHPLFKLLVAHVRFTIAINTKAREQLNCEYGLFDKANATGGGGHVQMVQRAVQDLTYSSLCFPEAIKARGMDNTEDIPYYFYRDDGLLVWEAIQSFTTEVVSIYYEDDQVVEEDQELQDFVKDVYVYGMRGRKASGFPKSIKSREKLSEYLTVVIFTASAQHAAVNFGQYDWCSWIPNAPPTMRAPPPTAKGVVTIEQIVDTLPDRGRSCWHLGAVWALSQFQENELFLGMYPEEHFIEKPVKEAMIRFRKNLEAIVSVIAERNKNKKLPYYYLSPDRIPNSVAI
Protocol: (§1) The actions of the compounds of this invention to inhibit 5-lipoxygenase and cyclooxygenase activities were measured in accordance with the method of Siegel et al. [Prostaglandins, Vol. 21, page 123 (1981)].
(§2) The exudate was extracted from the pleural cavity of a rat with carrageenan-induced pleurisy. White blood cells from the exudate were suspended in 50 mM Tris-HCl buffer (pH 7.4) containing 100 mM sodium chloride and 1 mM calcium chloride. To a fixed amount of the white blood cell suspension were added a test compound, ^14 C arachidonic acid and a calcium ionophore (A23187), and the mixture was incubated for 2 minutes. […] The radioactivity of each of the fractions was measured by a liquid scintillation counter, and the percentage of the radioactivity of each fraction based on the total radioactivity was calculated (the ratio of formation). The inhibition ratio of the test compound against the synthesis ability of each fraction was determined by using the ratio of formation as an index.
(§3) The lipoxygenase activity was determined by using the formation of 5S-hydroxy-6,8,11,14-eicosatetraenoic acid (5-HETE) and 5S,12R-dihydroxy-6,8,10,14-eicosatetraenoic acid (5,12-diHETE) as indices. The cyclooxygenase activity was determined by using the formation of 12-hydroxyheptadecatrienoic acid (HHT) as an index. […]

cyclooxygenase = assay: Cyclooxygenase inhibiting action (formation of HHT) in white blood cells from rat pleural exudate; assay type: cell-based; settings: 14C arachidonic acid, A23187, 2 minutes, read-out: concentration inhibiting 50% of the formation of HHT
Protocol: as §1, §2, §3

stomach = assay: Ulcerogenic activity; assay type: in vivo, male Wistar rats; settings: 300 mg/kg, p.o.; 4 hours after dosing; fasted rats
Protocol: The test compound was orally administered by the same way as in the test on anti-inflammatory activity to male Wistar rats weighing 120 to 150 g which had been fasted for 24 hours. Four hours later, they were killed with ether.

Structure (SMILES): CON=C(c1ccccc1)c1cc(C(C)(C)C)c(O)c(C(C)(C)C)c1
pharmacological actions such as anti-inflammatory, analgesic or anti-rheumatic activity [1]: does not substantially show pharmacological actions

IC50 (5-lipoxygenase): 6.2 µM
IC50 (cyclooxygenase): 1.25 µM
Structure (SMILES): CC(C)(C)c1cc(C(=NO)c2ccccc2)cc(C(C)(C)C)c1O [A, 3,5-di-t-butyl-4-hydroxybenzophenone oxime]
Percent inhibition (edema) (carrageenan paw edema): 26.7%
minimal effective dose ([2]; Rattus norvegicus, po, 504 h, once a day for 21 days, p<0.05, n=10, read-out: dose significantly inhibiting the development of adjuvant-induced arthritis): ≥ 3 mg/kg
rebound phenomenon in swelling after the stopping of drug administration ([2]; after 21 days of oral administration): No rebound phenomenon was noted
minimal effective dose (granuloma formation): ≥ 3 mg/kg
gastric trouble (stomach): no gastric trouble

Structure (SMILES): CC(=O)ON=C(c1ccccc1)c1cc(C(C)(C)C)c(O)c(C(C)(C)C)c1 [B, 3,5-di-t-butyl-4-hydroxybenzophenone O-acetyloxime]
Percent inhibition (edema) (carrageenan paw edema): 22.7%

Structure (SMILES): CCC(=O)ON=C(c1ccccc1)c1cc(C(C)(C)C)c(O)c(C(C)(C)C)c1 [C, 3,5-di-t-butyl-4-hydroxybenzophenone O-propionyloxime]
Percent inhibition (edema) (carrageenan paw edema): 23.6%

Structure (SMILES): CC(C)(C)c1cc(C(=NN)c2ccccc2)cc(C(C)(C)C)c1O [D, 3,5-di-t-butyl-4-hydroxybenzophenone hydrazone]
Percent inhibition (edema) (carrageenan paw edema): 21.0%
